This note sets out measurements from patent US7250551B2, “Transgenic mice expressing inducible human p25” (President and Fellows of Harvard College, priority 2002, dated 2007).

SMILES strings stand for the structures.

Series [1] has as its system secreted Aβ(1-40) and Aβ(1-42). Put plainly: Aβ secreted by rat primary cortical neurons infected with HSV expressing WT APP, sandwich ELISA. Format: cell-based. The note with it: rat cortical neurons expressing WT APP via HSV, inhibitor 8 hours, dose-dependent, P<0.05.
In series [2] the test system is T668 phosphorylation of APP. In words: T668 phosphorylation of full length APP in HSV-APP infected rat cortical neurons, Western blot. The note with it: rat cortical neurons expressing WT APP via HSV, inhibitor 8 hours. For orientation: A western blot detects proteins with antibodies after separation by electrophoresis.
Series [3] has as its system T668 phosphorylation on APP. In words: Ionomycin-induced T668 phosphorylation of APP in primary hippocampal neurons, Western blot. Format: cell-based, rat. Conditions: for T668 phosphorylation induced by ionomycin: 20 μM inhibitor 15 min before 4 μM ionomycin for 5 hours. The protocol: Primary hippocampal neurons were cultured as described from E18 rat embryos (Niethammer et al. (2000) Neuron 28:697). 8-day old cultures were treated with different concentrations of ionomycin (Calbiochem). In some cases, hippocampal neurons were incubated with either 20 μM roscovitine (Calbiochem) or 20 μM butyrolactone (Calbiochem) for 15 min at 37° C. before being treated with 4 μM ionomycin for 5 hours. Neurons were lysed in SDS sample buffer and lysates were separated on a 12% acrylamide gel and analyzed by Western blotting.
To determine if neurotoxic conditions influence APP phosphorylation, primary hippocampal neurons were treated with ionomycin.

The next series relates to rat cortical neurons. Put plainly: MTT cell viability of rat cortical neurons expressing WT APP. Conditions: rat cortical neurons expressing WT APP via HSV. The format is cell-based.
The subject of series [4] is primary neurons from APP(Sw) Tg mice. Put plainly: MTT cell viability of primary neurons from APP(Sw) Tg mice. The note with it: roscovitine 8 hours. Format: cell-based, mouse. The protocol: Primary cortical neurons were cultured from E15 APP(Sw) Tg mice (Tg2576) (Hsiao et al. (1996) Science 274:99) as described (Niethammer et al. (2000) Neuron 28:697). 4-day-cultured neurons were replaced with new media (DMEM/F 12) and treated with different concentrations of roscovitine (Calbiochem) for 8 hours, or with butyrolactone (Calbiochem) for 16 hours. Aβ secreted into the media from each culture was analyzed by sandwich ELISA (Biosource) according to specifications by the manufacturer. Cell viability was measured by treating neurons with MTT (Sigma) at a final concentration of 0.5 mg/ml for 1 hour. After MTT treatment, cell medium was replaced with DMSO and the optical density of at 495 nm was determined.

Series [5] has as its system APP subcellular distribution. Put plainly: Distribution of WT APP in iodixanol step gradient of primary cortical neuron homogenates. The format is cell-based, rat. The note with it: roscovitine 15 μM for 8 hr (FIG. 18D). From the text:
FIGS. 18A-18D depict co-fractionation of T668 phosphorylated APP with BACE1 and endosome markers. (A) Adult mouse brain lysate was fractionated through an iodixanol step gradient. […] (B) Quantification of protein distribution of A (fractions 1-20) showing that full length P-APP co-fractionates with BACE1. (C) Distribution of WT and T668A APP, expressed in rat primary cortical neurons using recombinant herpes simplex virus (HSV), in an iodixanol step gradient. The distribution pattern of BACE1 resembled that of WT APP. (D) Distribution of WT APP in an iodixanol step gradient after roscovitine treatment (15 μM for 8 hr).
FIGS. 25A-25B depict immunoblots showing distribution of APP and BACE1 in iodixanol step gradient. […] Twenty hours post infection, cell homogenates were fractionated through an iodixanol step gradient and the distributions of APP and BACE1 were analyzed. […] Cell homogenates were fractionated and the distributions of APP and BACE1 were analyzed by Western blot analysis.
To assess the significance of T668 phosphorylation in APP subcellular localization, WT APP and the T668A mutant APP were introduced into primary cortical neurons using recombinant herpes simplex virus (HSV). Twenty hours post infection, cell homogenates were fractionated through iodixanol step gradient and the distribution of APP in the collected fractions was analyzed. […]

For series [6], the system named is secreted Aβ(1-40) and Aβ(1-42). In words: Aβ secreted into media by primary neurons from APP(Sw) Tg mice, sandwich ELISA. The format is cell-based, mouse. The note with it: roscovitine 8 hours. The protocol:
FIGS. 7A-7F depict that inhibition of Cdk5 reduces Aβ generation in a Tg mouse model of AD. (A) Inhibition of Cdk5 lead to a decrease in Aβ secretion. Primary mixed hippocampal and cortical neurons were cultured from E17 APP (Swedish) (Sw) Tg mice. 4-day-cultured neurons were treated with the indicated concentration of roscovitine for 8 hours and assayed for the level of Aβ(1-40) secreted into the media. The level of secreted Aβ(1-40) was normalized against the untreated control. The data are the averages (±s.d.) from four independent experiments. (B) As in (A), but the level of Aβ(1-42) in the media was assayed instead. (C) Cell viability was measured using the MTT assay. Cell viability was normalized against the untreated control. […] (F) Cell viability was measured using the MTT assay.
Primary cortical neurons were cultured from E15 APP(Sw) Tg mice (Tg2576) (Hsiao et al. (1996) Science 274:99) as described (Niethammer et al. (2000) Neuron 28:697). […] Aβ secreted into the media from each culture was analyzed by sandwich ELISA (Biosource) according to specifications by the manufacturer. Cell viability was measured by treating neurons with MTT (Sigma) at a final concentration of 0.5 mg/ml for 1 hour. After MTT treatment, cell medium was replaced with DMSO and the optical density of at 495 nm was determined.
On the technique in general: In an ELISA, binding on a coated surface is turned into a signal by an enzyme label.

As to `O=C1CCCO1` [butyrolactone], in series [1], the “levels of secreted Aβ(1-40)” value is “significantly reduced” and the “levels of secreted Aβ(1-42)” value is listed as “significantly reduced”. In addition, in series [2], the T668 phosphorylation result is recorded as “substantial decreases”. Also, the “T668 phosphorylation induced by ionomycin” value in series [3] is recorded as “inhibited”. In addition, the “cell viability, MTT assay” value with rat cortical neurons is “not due to a decline in cell viability”.

In the case of `CC[C@H](CO)Nc1nc(NCc2ccccc2)c2ncn(C(C)C)c2n1` [roscovitine], in series [1], the “levels of secreted Aβ(1-40)” value is on record as “significantly reduced” and the “levels of secreted Aβ(1-42)” value is “significantly reduced”. Moreover, in series [2], the T668 phosphorylation entry is “substantial decreases”. Further, the “cell viability, MTT assay” value in series [4] is reported as “not due to a decline in cell viability”. Further, the “T668 phosphorylation induced by ionomycin” value in series [3] is recorded as “inhibited”. Moreover, the “APP distribution in iodixanol step gradient” value in series [5] is listed as “shifted to heavier membrane fractions”. Further, in the series with rat cortical neurons, the “cell viability, MTT assay” value is recorded as “not due to a decline in cell viability”. Besides, in series [6], the “secreted beta-amyloid (1-40) (Aβ(1-40)) levels” value is on record as “dose-dependent decrease” and the “secreted beta-amyloid (1-42) (Aβ(1-42)) levels” value is reported as “also reduced”.

As to `C[C@H](CCC(=O)O)C[C@H](C)C[C@H](C)C(=O)/C=C(\O)[C@H](C)C[C@H](C)C/C=C/[C@@H](C)[C@@H](O)[C@@H](C)[C@@H](O)C[C@@H]1CC[C@@](C)([C@H]2CC[C@@](C)([C@@H](C)O)O2)O1` [Ionomycin, ionomycin], the “T668 phosphorylation on APP” value in series [3] (primary hippocampal neurons treated with ionomycin) is “marked elevation”.
